Patent publication US20090060984A1, “ANIONIC SURFACTANTS LETHAL TO GRAM-POSITIVE BACTERIA” (priority 2007, published 2009)
“And” between values parts separate entries of the source, which are not always exact repeats. Equal values may be shown once. Read-outs that look alike come from different tables or passages of the source.

Assays:
E. coli = format: cell-based, Escherichia coli; settings: 24 h contact time
Protocol: Escherichia coli ATCC 11229 (Culti-loops, Remel Europe, Dartford, Kent, UK) and Pseudomonas aeruginosa ATCC 15442 (Cuti-loops, Remel Europe, Dartford, Kent, UK) were selected as model Gram-negative organisms for the challenge testing of the antimicrobial coatings. Each bacterial strain was streaked for isolated colonies on Tryptic Soy Agar (TSA) plates (Difco, Becton Dickinson, Sparks, Md., U.S.A.) and incubated at 37° C. for 12 to 18 hours. Broth cultures were prepared by first picking 1-2 isolated colonies from TSA plates and inoculating 5 mL Tryptic Soy Broth (TSB; Difco, Becton Dickinson, Sparks, Md., U.S.A.) in a 16 mm test tube. This culture was grown in a shaking water bath at 150 RPM for 8 hours at 37° C. After the eight hours, 125 μL of this culture was added to 50 mL of TSB in a side-arm Klett flask and grown for approximately 8 hours in shaking water bath (150 RPM) at 37° C. The bacterial broths were grown to an A590 of 1.2-1.5, which correlated to approximately 10^9 CFU (colony forming units)/mL. 25 mL of this broth were transferred to a sterile 30 mL Oakridge tube and centrifuged at 12,000×g for 10 minutes at 4° C. (Sorval SS34 rotor) to pelletize the bacteria. The bacterial pellet was washed once and resuspended in 25 mL of phosphate buffer solution (PBS; BBL, FTA Hemaglutination Buffer, Becton Dickinson, Sparks, Md., U.S.A.). The suspension was diluted with PBS to achieve the target range of 10^5-10^6 CFU/mL and used to inoculate the slides containing antibacterial coatings.
Xylene/methanol (5:1 by weight) is used to dissolve the silver surfactants to facilitate homogeneously mixing with the alkyd resin composition.
A minus sign (−) denotes no growth, a plus sign (+) denotes confluent growth, and a capital P (P) denotes […].
Xylene/methanol (5:1 by weight) is used to dissolve the silver surfactants to facilitate homogeneously mixing with the acrylic resin composition.
The same laboratory experimental solvent based acrylic paint described in Example 34 is used to challenge E. coli by adding various levels of the invention silver anionic surfactants as described in Example 34.
A commercially available 2K epoxy resin paint is obtained from a local paint store (Sherwin Williams High Solids Epoxy Tile Clad HS; Part A B62WC11; Part B B60VZ75, The Sherwin Williams Company) and the same silver anionic surfactants described in Example 35 are used to prepare test coatings on microscope slides containing various levels of silver ion. These surfactants are dissolved in xylene/methanol (5:1 by weight) to facilitate their quantitative addition to the coating mixture.

Streptococcus viridans = experiment: Growth on surfactant/TSA agar plates; format: cell-based; settings: Streptococcus viridans strain EM8
[1] = system: Staphylococcus epidermidis; experiment: Growth on surfactant/TSA agar plates; format: cell-based; settings: Staphylococcus epidermidis strain EM3/ATCC12228
Enterococcus fecalis = experiment: Growth on surfactant/TSA agar plates; format: cell-based; further: test concentration or dose not given here
Streptococcus bovis = experiment: Growth on surfactant/TSA agar plates; format: cell-based; settings: Streptococcus bovis strain EM12
Bacillus subtilis = experiment: Growth on surfactant/TSA agar plates; format: cell-based; further: test concentration or dose not given here
Staphylococcus aureus = experiment: Growth on surfactant/TSA agar plates; format: cell-based; further: test concentration or dose not given here
Streptococcus pyogenes = experiment: Growth on surfactant/TSA agar plates; format: cell-based; settings: Streptococcus pyogenes strain EM14; further: test concentration or dose not given here
Streptococcus agalactiae = experiment: Growth on surfactant/TSA agar plates; format: cell-based; settings: Streptococcus agalactiae strain EM13
Micrococcus luteus = experiment: Growth on surfactant/TSA agar plates; format: cell-based; settings: Micrococcus luteus strain EM17
[2] = laboratory solvent based acrylic paint
[3] = Enterococcus fecalis strain EM19 (first listing)
[4] = Enterococcus fecalis strain EM19 (second listing)
[5] = Bacillus subtilis strain ATCC33
[6] = Staphylococcus aureus strain ATCC6538
[7] = Staphylococcus aureus strain EM24/ATCC25923

CCCCCCCCCCCCOS(=O)(=O)[O-].[Ag+] [AgDS, Silver dodecylsufate]
E. coli growth on coating (E. coli; alkyd resin paint, 0.0012 weight % Ag in coating): + | E. coli growth on coating (E. coli; alkyd resin paint, 0.003 weight % Ag in coating): + | E. coli growth on coating (E. coli; alkyd resin paint, 0.006 weight % Ag in coating): + | E. coli growth on coating (E. coli; alkyd resin paint, 0.012 weight % Ag in coating): + | E. coli growth on coating (E. coli; alkyd resin paint, 0.03 weight % Ag in coating): − | E. coli growth on coating (E. coli; alkyd resin paint, 0.06 weight % Ag in coating): − | E. coli growth on coating (E. coli; alkyd resin paint, 0.12 weight % Ag in coating): − | E. coli growth on coating (E. coli; commercial 2K epoxy paint, 0.0012 weight % Ag in coating): + | E. coli growth on coating (E. coli; commercial 2K epoxy paint, 0.003 weight % Ag in coating): + | E. coli growth on coating (E. coli; commercial 2K epoxy paint, 0.006 weight % Ag in coating): + | E. coli growth on coating (E. coli; commercial 2K epoxy paint, 0.03 weight % Ag in coating): − | E. coli growth on coating (E. coli; commercial 2K epoxy paint, 0.06 weight % Ag in coating): − | E. coli growth on coating (E. coli; commercial 2K epoxy paint, 0.12 weight % Ag in coating): − | Silver level giving complete inhibition of growth (E. coli; commercial 2K epoxy paint): 0.03 % w/w | Silver level partially effective (E. coli; commercial 2K epoxy paint): 0.012 % w/w | E. coli growth on coating (E. coli; commercial solvent borne acrylate paint, 0.0012 weight % Ag in coating): + | E. coli growth on coating (E. coli; commercial solvent borne acrylate paint, 0.003 weight % Ag in coating): + | E. coli growth on coating (E. coli; commercial solvent borne acrylate paint, 0.006 weight % Ag in coating): + | E. coli growth on coating (E. coli; commercial solvent borne acrylate paint, 0.012 weight % Ag in coating): + | E. coli growth on coating (E. coli; commercial solvent borne acrylate paint, 0.03 weight % Ag in coating): − | E. coli growth on coating (E. coli; commercial solvent borne acrylate paint, 0.06 weight % Ag in coating): − | E. coli growth on coating (E. coli; commercial solvent borne acrylate paint, 0.12 weight % Ag in coating): − | Silver level effective at preventing any growth (E. coli; commercial solvent borne acrylic paint): completely effective at this lower level | Silver level preventing any growth (E. coli; [2]): 0.03 % w/w | Silver level with partial inhibition (E. coli; [2]): 0.012% | E. coli growth on coating (E. coli; laboratory solvent borne acrylate paint, 0.0012 weight % Ag in coating): + | E. coli growth on coating (E. coli; laboratory solvent borne acrylate paint, 0.003 weight % Ag in coating): + | E. coli growth on coating (E. coli; laboratory solvent borne acrylate paint, 0.006 weight % Ag in coating): + | E. coli growth on coating (E. coli; laboratory solvent borne acrylate paint, 0.03 weight % Ag in coating): − | E. coli growth on coating (E. coli; laboratory solvent borne acrylate paint, 0.06 weight % Ag in coating): − | E. coli growth on coating (E. coli; laboratory solvent borne acrylate paint, 0.12 weight % Ag in coating): −

CCCCC(CC)COC(=O)CC(C(=O)OCC(CC)CCCC)S(=O)(=O)[O-].[Na+] (stereo not shown) [Compound S1]
No Growth(−)/Full Growth(+), replicate columns (Streptococcus viridans): − | No Growth(−)/Full Growth(+), replicate columns [1]: − | No Growth(−)/Full Growth(+), replicate columns (Enterococcus fecalis; [3]): − | No Growth(−)/Full Growth(+), replicate columns (Enterococcus fecalis; [4]): − | No Growth(−)/Full Growth(+), replicate columns (Streptococcus bovis): − | No Growth(−)/Full Growth(+), replicate columns (Bacillus subtilis; [5]): − | No Growth(−)/Full Growth(+), replicate columns (Bacillus subtilis; Bacillus subtilis strain EM27): − | No Growth(−)/Full Growth(+), replicate columns (Staphylococcus aureus; [6]): − | No Growth(−)/Full Growth(+), replicate columns (Staphylococcus aureus; [7]): − | No Growth(−)/Full Growth(+), replicate columns (Streptococcus pyogenes): − | No Growth(−)/Full Growth(+), replicate columns (Streptococcus agalactiae): − | No Growth(−)/Full Growth(+), replicate columns (Micrococcus luteus): −

CCCCC(CC)COP(=O)([O-])OCCC(CC)CCC.[Na+] (stereo not shown) [Compound S2]
No Growth(−)/Full Growth(+), replicate columns (Streptococcus viridans): − | No Growth(−)/Full Growth(+), replicate columns [1]: − | No Growth(−)/Full Growth(+), replicate columns (Enterococcus fecalis; [3]): − | No Growth(−)/Full Growth(+), replicate columns (Enterococcus fecalis; [4]): − | No Growth(−)/Full Growth(+), replicate columns (Streptococcus bovis): − | No Growth(−)/Full Growth(+), replicate columns (Bacillus subtilis; [5]): − | No Growth(−)/Full Growth(+), replicate columns (Bacillus subtilis; Bacillus subtilis strain EM27): − | No Growth(−)/Full Growth(+), replicate columns (Staphylococcus aureus; [6]): − | No Growth(−)/Full Growth(+), replicate columns (Staphylococcus aureus; [7]): − | No Growth(−)/Full Growth(+), replicate columns (Streptococcus pyogenes): − | No Growth(−)/Full Growth(+), replicate columns (Streptococcus agalactiae): − | No Growth(−)/Full Growth(+), replicate columns (Micrococcus luteus): −

CCCCCCCCCCCCCCCCCCNC(=O)CC(C(=O)[O-])S(=O)(=O)[O-].[Na+].[Na+] (stereo not shown) [Compound S3]
No Growth(−)/Full Growth(+), replicate columns (Streptococcus viridans): + | No Growth(−)/Full Growth(+), replicate columns [1]: − | No Growth(−)/Full Growth(+), replicate columns (Enterococcus fecalis; [3]): − | No Growth(−)/Full Growth(+), replicate columns (Enterococcus fecalis; [4]): + | No Growth(−)/Full Growth(+), replicate columns (Streptococcus bovis): − | No Growth(−)/Full Growth(+), replicate columns (Bacillus subtilis; [5]): − | No Growth(−)/Full Growth(+), replicate columns (Bacillus subtilis; Bacillus subtilis strain EM27): − | No Growth(−)/Full Growth(+), replicate columns (Staphylococcus aureus; [6]): − | No Growth(−)/Full Growth(+), replicate columns (Staphylococcus aureus; [7]): − | No Growth(−)/Full Growth(+), replicate columns (Streptococcus pyogenes): − | No Growth(−)/Full Growth(+), replicate columns (Streptococcus agalactiae): − | No Growth(−)/Full Growth(+), replicate columns (Micrococcus luteus): −

CC(C)CC(C)OC(=O)CC(C(=O)OC(C)CC(C)C)S(=O)(=O)[O-].[Na+] (stereo not shown) [Compound S4]
No Growth(−)/Full Growth(+), replicate columns (Streptococcus viridans): + | No Growth(−)/Full Growth(+), replicate columns [1]: + | No Growth(−)/Full Growth(+), replicate columns (Enterococcus fecalis; [3]): + | No Growth(−)/Full Growth(+), replicate columns (Enterococcus fecalis; [4]): + | No Growth(−)/Full Growth(+), replicate columns (Streptococcus bovis): − | No Growth(−)/Full Growth(+), replicate columns (Bacillus subtilis; [5]): − and + | No Growth(−)/Full Growth(+), replicate columns (Bacillus subtilis; Bacillus subtilis strain EM27): + | No Growth(−)/Full Growth(+), replicate columns (Staphylococcus aureus; [6]): + | No Growth(−)/Full Growth(+), replicate columns (Staphylococcus aureus; [7]): + | No Growth(−)/Full Growth(+), replicate columns (Streptococcus pyogenes): − | No Growth(−)/Full Growth(+), replicate columns (Streptococcus agalactiae): − and + | No Growth(−)/Full Growth(+), replicate columns (Micrococcus luteus): − (2×) and +

O=C(CC(C(=O)OC1CCCCC1)S(=O)(=O)[O-])OC1CCCCC1.[Na+] (stereo not shown) [Compound S5]
No Growth(−)/Full Growth(+), replicate columns (Streptococcus viridans): + | No Growth(−)/Full Growth(+), replicate columns [1]: + | No Growth(−)/Full Growth(+), replicate columns (Enterococcus fecalis; [3]): + | No Growth(−)/Full Growth(+), replicate columns (Enterococcus fecalis; [4]): + | No Growth(−)/Full Growth(+), replicate columns (Streptococcus bovis): − | No Growth(−)/Full Growth(+), replicate columns (Bacillus subtilis; [5]): − | No Growth(−)/Full Growth(+), replicate columns (Bacillus subtilis; Bacillus subtilis strain EM27): − and + | No Growth(−)/Full Growth(+), replicate columns (Staphylococcus aureus; [6]): + | No Growth(−)/Full Growth(+), replicate columns (Staphylococcus aureus; [7]): + | No Growth(−)/Full Growth(+), replicate columns (Streptococcus pyogenes): − | No Growth(−)/Full Growth(+), replicate columns (Streptococcus agalactiae): − (2×) and + | No Growth(−)/Full Growth(+), replicate columns (Micrococcus luteus): + and − (2×)

CCCCCCCCCCCCCOC(=O)CC(C(=O)OCCCCCCCCCCCCC)S(=O)(=O)[O-].[Na+] (stereo not shown) [Compound S6]
No Growth(−)/Full Growth(+), replicate columns (Streptococcus viridans): + | No Growth(−)/Full Growth(+), replicate columns [1]: + | No Growth(−)/Full Growth(+), replicate columns (Enterococcus fecalis; [3]): + | No Growth(−)/Full Growth(+), replicate columns (Enterococcus fecalis; [4]): + | No Growth(−)/Full Growth(+), replicate columns (Streptococcus bovis): − | No Growth(−)/Full Growth(+), replicate columns (Bacillus subtilis; [5]): + (2×) and − | No Growth(−)/Full Growth(+), replicate columns (Bacillus subtilis; Bacillus subtilis strain EM27): − (2×) and + | No Growth(−)/Full Growth(+), replicate columns (Staphylococcus aureus; [6]): + | No Growth(−)/Full Growth(+), replicate columns (Staphylococcus aureus; [7]): + | No Growth(−)/Full Growth(+), replicate columns (Streptococcus pyogenes): − | No Growth(−)/Full Growth(+), replicate columns (Streptococcus agalactiae): − (2×) and + | No Growth(−)/Full Growth(+), replicate columns (Micrococcus luteus): +
